Measurements: ChEMBL document CHEMBL3301361, “Experimental in vitro DMPK and physicochemical data on a set of publicly disclosed compounds”

Assay: physchem
Settings: octan-1-ol/water, pH 7.4, LogD7.4

SMILES | logD
O=C(NCC12CC3CC(CC(C3)C1)C2)c1ccccc1 | 4.21
C/N=C(\S)n1nc(-c2ccc(Cl)cc2)nc1N | 4.12
CC(C)C(NC(=O)Cn1c(-c2ccccc2)ccc(NC(=O)Cc2ccc(C(=O)O)cc2)c1=O)C(=O)C(F)(F)F (stereo unspecified) | 0.35
CC(=N)NCc1ccccc1 | -0.28
O=c1[nH]n(Cc2ccncc2)c(=O)c2c(=O)c3ccc(Cl)cc3[nH]c12 | -0.16
O=S(=O)(NCC(c1ccccc1)N1CCCCCC1)c1ccc(C(F)(F)F)cc1 (stereo unspecified) | 4.29
CC(=O)Nc1ccccn1 | 0.5
NC(=O)c1cccc(OC2CCN(CC3CC3)CC2)c1 | 0.49
CNS(=O)(=O)CCc1ccc2[nH]cc(C3CCN(C)CC3)c2c1 | 0.48
Cc1nnc(N)s1 | -0.4
Fc1ccc(C2CCN(C(=S)COCc3ccncc3)CC2)c(Cl)c1 | 4.23
Cc1nc(C(=O)N2CCCC3(CCN(Cc4ccccc4)CC3)C2)cs1 | 0.24
CC(C)(C)NC(=O)C(c1ccncc1)N(Cc1ccco1)C(=O)c1ccc(-c2ccccc2)[nH]1 (stereo unspecified) | 4.13
O=S(=O)(Nc1ccc2[nH]c(-c3ccc(Br)o3)nc2c1)c1ccccc1 | 4.38
CCN(c1ccccc1)c1cc(NC)[n+](C)c(C)n1 | -0.91
C=CCc1cc(NC(C)=O)ccc1OCCCNC(C)C | -0.01
Cc1c(CCC(=O)O)c(=O)oc2cc(O)ccc12 | -0.7
CC(=O)Nc1nc(N)n(-c2ccccc2)n1 | -0.2
O=C(Oc1ccccc1O)c1cccc2ccccc12 | 4.4
CN1CCN(CC(=O)Nc2c(C#N)cnn2-c2ccccc2)CC1 | 0
N=C(N)Nc1ccc(C(=O)Oc2ccccc2)cc1 | -0.21
Nc1nc(-c2ccccc2)nc2c1nc(O)n2Cc1ccccc1 | 4.16
CC(c1ccccc1)C(Cc1nc2ccccc2[nH]1)c1nc2ccccc2[nH]1 (stereo unspecified) | 4.48

SMILES | logD
CC(=O)Nc1ccc(S(=O)(=O)Nc2ccccn2)cc1 | 0.24
CC(C)(C)c1cc(O)n2nc(N)nc2n1 | -0.2
Cc1ccc(OCC(=O)O)c(-n2nc3ccccc3n2)c1 | -0.84
CCN(CC)CC(=O)Nc1c(C#N)cnn1-c1ccccc1 | 0.4
O=C(O)c1ccc(-c2nnn(Cc3ccccc3F)n2)cc1 | 0.3
O=C(Nc1ccccc1)Nc1ccccc1C(=O)O | -0.12
Nc1ccnc(-c2cccnc2)n1 | 0.44
CC1CN(Cc2cc(Cl)ccc2OCC(=O)O)CCN1S(=O)(=O)c1ccccc1 (stereo unspecified) | 0.31
Oc1cc(-c2ccccc2)nc2ncnn12 | -0.21
Cc1cc(NC(=O)Nc2ccc(Cl)cc2)n(-c2ccccc2)n1 | 4.15
Cc1ccc(CO)cc1N(C)c1ccnc(Nc2cc(N3CCCCC3)cc(N3CCOCC3)c2)n1 | 4.2
COC[C@H](C)Oc1cc(Oc2ccc(S(C)(=O)=O)cc2)cc(C(=O)Nc2ccc(C(=O)O)cn2)c1 | -0.41
COc1ccc(-c2cc(C(F)(F)F)ccc2OCC(=O)O)cc1 | 0.29
CCS(=O)(=O)c1ccc(-c2cc(C(F)(F)F)ccc2O[C@H](C)C(=O)O)c(C)c1 | -0.4
COc1cc(N2CCN(C(C)=O)CC2)ccc1Nc1ncc(Cl)c(-c2cnc3cc(Cl)ccn23)n1 | 4.2
COc1cc(N2CCN(C(C)=O)CC2)ccc1Nc1ncc(Cl)c(-c2cnc3ccc(N(C)C)cn23)n1 | 4.1
CC(=O)Nc1cccc(Nc2ncnc(N3CCC(OCc4ccc(OC(F)(F)F)cc4)CC3)n2)c1C | 4.4
CCC(c1nc2ccsc2c(=O)n1Cc1cccnc1)N(CCCN)C(=O)c1ccc(C)cc1 (stereo unspecified) | 0.01
CCC(c1nc2ccsc2c(=O)n1Cc1cscn1)N(CCCN)C(=O)c1ccc(C)cc1 (stereo unspecified) | 0.02
CCC(c1nc2ncccc2c(=O)n1Cc1ccccc1)N(CCCN)C(=O)c1ccc(C)cc1 (stereo unspecified) | -0.04
CCC(NC(=O)c1ccc(C)cc1)c1nc2ccsc2c(=O)n1Cc1ccccc1 (stereo unspecified) | 4.14
CN1CCN(CCCOc2ccc(-c3cc(-c4ccc(F)cc4)no3)cc2)CC1 | 3.81
COc1cc2ncnc(Nc3cc(NC(=O)c4cccc(N(C)C)c4)ccc3Cl)c2cc1OC | 4.26

SMILES | logD
Cc1c(CCC(=O)O)c(=O)oc2c(C)c(O)ccc12 | -0.3
CNC(=O)c1cnn(-c2ccccc2)c1NS(=O)(=O)c1ccc(C)cc1 | -0.54
COc1ccc2c(C)nc(=O)n(CCN3CCC(NCc4cc5c(cn4)OCCO5)CC3)c2c1 | 0.29
COc1ncc2ncc(=O)n(CCN3CCC(NCc4cc5c(cn4)OCCO5)CC3)c2n1 | -0.14
CCS(=O)(=O)c1ccc(Oc2c(C)n(CC(=O)O)c3ccc(C(F)(F)F)cc23)cc1 | 0.29
Cc1ccc2c(n1)c(Sc1ccc(Cl)cc1)c(C)n2CC(=O)O | 0.35
C[C@H]1O[C@@H](n2cnc3c(N)nc(OC4CCOC4)nc32)[C@H](O)[C@@H]1O (stereo partly specified) | -0.06
COCCNCc1ccc(CCNC[C@H](O)c2ccc(O)c3[nH]c(=O)sc23)cc1 | -0.54
CN[C@@H](C)C(=O)N[C@H](C(=O)N[C@H]1CCCN(CCc2ccccn2)C1)C(C)(C)C | -0.55
N=C(N)NC(=O)c1nc(Cl)c(NCc2ccncc2)nc1N | -0.51
N=C(N)NC(=O)c1nc(Cl)c(NCc2ccccn2)nc1N | -0.56
COc1ccc(-c2nc3c(NCCCNC(=O)c4ccccc4)c(Br)cnc3[nH]2)cc1 | 0.25
O=C(NS(=O)(=O)c1ccc(NCCSc2ccccc2)c([N+](=O)[O-])c1)c1ccc(N2CCNCC2)cc1 | -0.04
CNc1cccc(CCOc2ccc(C[C@H](NC(=O)c3c(C)cc(C)cc3C)C(=O)O)cc2)n1 | 0.52
O=C(N[C@@H](Cc1ccc(OCCNc2ccccn2)cc1)C(=O)O)c1c(Cl)cccc1Cl | -0.48
O=C(N[C@@H](Cc1cccc(OCCCNc2ccccn2)c1)C(=O)O)c1c(Cl)cccc1Cl | 0.16
O=C(N[C@@H](Cc1ccc(CCCCNc2ccccn2)cc1)C(=O)O)c1c(Cl)cccc1Cl | 0.51
O=C(Cc1ccc2c(n1)NCCC2)Nc1ccc(C[C@H](NC(=O)c2c(Cl)cccc2Cl)C(=O)O)cc1 | -0.63
CCCSc1nc2ccc(NC(=O)CCC(=O)O)cc2s1 | 0.5
CC(=O)Nc1ccc2c(c1)c(-c1cc(NC3CC3)n3ncc(C#N)c3n1)cn2CCC(=O)O | -0.87
COc1ncc(-c2cccc3c2C[C@H](NC(=O)c2ccc(OCC(F)(F)F)nc2)CO3)cn1 | 4.3
Cc1oc(C#N)cc1-c1c2c(=O)n(C)c(=O)n(CC3CC3)c2nn1Cc1ccnc2ccc(Cl)cc12 | 4.26
Cn1cncc1-c1c2c(=O)n(CC3CC3)c(=O)n(CC3CC3)c2nn1Cc1ccnc2ccc(Cl)cc12 | 4.33

SMILES | logD
CCn1c(=O)c2c(-c3cc(C#N)cn3C)n(Cc3ccnc4ccc(Cl)cc34)nc2n(CC2CC2)c1=O | 4.13
C=CCn1c(=O)c2c(-c3cc(C#N)cn3C)n(Cc3ccnc4ccc(Cl)cc34)nc2n(CC2CC2)c1=O | 4.27
COc1c(N2CCO[C@@H](CN(C)C)C2)c(F)cc2c(=O)c(C(=O)O)cn(C3CC3)c12 | -0.62
NC(=O)C1CCN(CC(=O)Nc2ccc3c(c2)OCO3)CC1 | 0.4
CC#Cc1ccnc(-c2cccc([C@@]3(c4cc(C)c(=O)n(CC)c4)N=C(N)c4c(F)cccc43)c2)c1 | 4.4
CC(C)N(C(=O)C(c1cccnc1)C(CNC(=O)NCc1ccccc1F)c1ccccc1)C(C)C (stereo unspecified) | 4.2
Nc1nnc(CCSCCc2nnc(N)s2)s1 | -0.1
O=C(NCCCNc1nc(Nc2cccc(NC(=O)N3CCCC3)c2)ncc1Br)c1cccs1 | 4.13
CC(C)c1ccccc1Nc1nnc(SCc2cccs2)[nH]1 | 4.21
OCC[C@]1(c2cc3ccccc3o2)CCCNC1 | 0.12
OCC[C@@]1(c2cc3ccccc3o2)CCCNC1 | 0.06
Nc1nc2cc3c(cc2s1)CCN(Cc1cnc[nH]1)CC3 | -0.12
Cc1cn([C@H]2CCCN(S(=O)(=O)c3ccc(C(=O)O)c(Oc4ccc(Cl)c(Cl)c4)c3)C2)c(=O)[nH]c1=O | -0.87
CC(C)C[C@H](CO)Nc1nc(SCc2ccccc2F)nc2nc(N)sc12 | 4.5
CC(C)(C)c1ccc(-c2n[nH]c(NC(=O)c3ccccc3Cl)c2Br)cc1 | 4.3
O=S(=O)(Nc1nccs1)c1ccc(O)cc1 | 0.36
NCc1nc2ccccc2[nH]1 | 0.4
Cc1cccc(Br)c1C(=O)N[C@@H](Cc1ccc(NC(=O)c2c(Cl)cccc2Cl)cc1)C(=O)O | -0.13
Cc1cc(N)c2cc(NC(=O)CCCCC(=O)Nc3ccc4nc(C)cc(N)c4c3)ccc2n1 | 0.53
COc1ccccc1C(=O)NCC12CC3CC(CC(C3)C1)C2 | 4.43
COc1ccc(Cl)c(C(=O)NCC23CC4CC(CC(C4)C2)C3)c1 | 4.39
N=C(N)NCCC[C@H](NC(=O)COCC(c1ccccc1)c1ccccc1)C(=O)O | 0.18
O=C(N[C@@H](Cc1ccc(N2CCN(c3ccccc3)CC2)cc1)C(=O)O)c1c(Cl)cccc1Cl | 0.08

SMILES | logD
O=C(NCC12CC3CC(CC(C3)C1)C2)c1ccccc1Br | 4.15
N=C(N)Nc1ccc(Cl)c(Cl)c1 | -0.31
FC(F)(F)c1cc(COCC(c2cccc(Cl)c2)N2CCNCC2)cc(C(F)(F)F)c1 (stereo unspecified) | 4.2
Cc1ccc(NC(=O)CCC2CCCCC2)cc1NC(=O)c1ccc(O)cc1 | 4.13
O=C(NCC12CC3CC(CC(C3)C1)C2)c1cccc(Cl)c1Cl | 4.37
CC[C@H](NC(=O)c1c(CN(C)C)c(-c2ccccc2)nc2ccccc12)c1ccccc1 | 4.18
Cc1oc(S(C)(=O)=O)cc1-c1c2c(=O)n(C)c(=O)n(CC3CC3)c2nn1Cc1cn(C)c2ccc(Cl)cc12 | 4.48
Brc1cnc(NCc2ccccc2)nc1Nc1cc(C2CC2)n[nH]1 | 4.11
O=C(COc1ccc(OCCNCC(O)COc2ccccc2)cc1)NCCO (stereo unspecified) | 0.42
c1ccc(OCC2CNCCO2)cc1 (stereo unspecified) | 0.2
Fc1ccc(CNc2ncc(Br)c(Nc3cc(C4CC4)[nH]n3)n2)cc1 | 4.28
N=C(N)Nc1ccc(C(=O)Oc2ccc([N+](=O)[O-])cc2)cc1 | 0.5
COc1cccc(NC(=O)c2cccc(Cc3c(C)nn(CCO)c3-c3ccccc3)c2)c1 | 4.29
NNc1nc2ccccc2[nH]c1=O | 0.44
Cc1nc(NC(=N)N)nc2ccccc12 | -0.49
Cc1cc(C)c(C(=O)N[C@@H](Cc2ccc(OCCCNc3ccccn3)cc2)C(=O)O)c(C)c1 | 0.49
O=c1ccnc2ccccn12 | 0.2
Nc1nc(N)c2nc(CO)cnc2n1 | -0.45
COc1cccc(OC)c1-c1ccc(C[C@H](NC(=O)c2c(Cl)cccc2Cl)C(=O)O)cc1 | -0.27
